Results published in the NIST ThermoML archive (doi:10.1016/j.jct.2007.08.002).
“And” between values parts separate entries of the source, which are not always exact repeats. Equal entries are not always repeated.

Assay: molar heat capacity at saturation pressure

NC12CC3CC(CC(C3)C1)C2 [tricyclo(3.3.1.1:3,7)decan-1-amine]
Conditions | molar heat capacity
196.06 K, Crystal 3, Small (less than 1 g) adiabatic calorimetry | 135.44 J/K/mol
197.25 K, Crystal 3, Small (less than 1 g) adiabatic calorimetry | 136.86 J/K/mol
197.97 K, Crystal 3, Small (less than 1 g) adiabatic calorimetry | 137.6 J/K/mol
199.25 K, Crystal 3, Small (less than 1 g) adiabatic calorimetry | 139.1 J/K/mol
199.88 K, Crystal 3, Small (less than 1 g) adiabatic calorimetry | 139.77 J/K/mol
200.91 K, Crystal 3, Small (less than 1 g) adiabatic calorimetry | 140.93 J/K/mol
201.79 K, Crystal 3, Small (less than 1 g) adiabatic calorimetry | 142.09 J/K/mol
202.24 K, Crystal 3, Small (less than 1 g) adiabatic calorimetry | 142.51 J/K/mol
203.56 K, Crystal 3, Small (less than 1 g) adiabatic calorimetry | 144.09 J/K/mol
204.88 K, Crystal 3, Small (less than 1 g) adiabatic calorimetry | 145.75 J/K/mol
206.19 K, Crystal 3, Small (less than 1 g) adiabatic calorimetry | 147.58 J/K/mol
207.51 K, Crystal 3, Small (less than 1 g) adiabatic calorimetry | 149.24 J/K/mol
207.53 K, Crystal 3, Small (less than 1 g) adiabatic calorimetry | 149.33 J/K/mol
208.81 K, Crystal 3, Small (less than 1 g) adiabatic calorimetry | 151.16 J/K/mol
209.45 K, Crystal 3, Small (less than 1 g) adiabatic calorimetry | 152.07 J/K/mol
210.11 K, Crystal 3, Small (less than 1 g) adiabatic calorimetry | 152.9 J/K/mol
211.36 K, Crystal 3, Small (less than 1 g) adiabatic calorimetry | 154.9 J/K/mol
211.41 K, Crystal 3, Small (less than 1 g) adiabatic calorimetry | 154.9 J/K/mol
212.7 K, Crystal 3, Small (less than 1 g) adiabatic calorimetry | 156.73 J/K/mol
213.28 K, Crystal 3, Small (less than 1 g) adiabatic calorimetry | 157.97 J/K/mol
213.99 K, Crystal 3, Small (less than 1 g) adiabatic calorimetry | 158.89 J/K/mol
215.2 K, Crystal 3, Small (less than 1 g) adiabatic calorimetry | 161.05 J/K/mol
215.27 K, Crystal 3, Small (less than 1 g) adiabatic calorimetry | 161.05 J/K/mol
216.55 K, Crystal 3, Small (less than 1 g) adiabatic calorimetry | 163.3 J/K/mol
217.12 K, Crystal 3, Small (less than 1 g) adiabatic calorimetry | 164.54 J/K/mol
217.82 K, Crystal 3, Small (less than 1 g) adiabatic calorimetry | 165.71 J/K/mol
219.04 K, Crystal 3, Small (less than 1 g) adiabatic calorimetry | 168.28 J/K/mol
219.1 K, Crystal 3, Small (less than 1 g) adiabatic calorimetry | 168.28 J/K/mol
220.36 K, Crystal 3, Small (less than 1 g) adiabatic calorimetry | 170.95 J/K/mol
220.96 K, Crystal 3, Small (less than 1 g) adiabatic calorimetry | 172.36 J/K/mol
221.61 K, Crystal 3, Small (less than 1 g) adiabatic calorimetry | 173.61 J/K/mol
222.86 K, Crystal 3, Small (less than 1 g) adiabatic calorimetry | 176.6 J/K/mol
222.88 K, Crystal 3, Small (less than 1 g) adiabatic calorimetry | 176.77 J/K/mol
224.1 K, Crystal 3, Small (less than 1 g) adiabatic calorimetry | 179.84 J/K/mol
224.8 K, Crystal 3, Small (less than 1 g) adiabatic calorimetry | 181.75 J/K/mol
225.33 K, Crystal 3, Small (less than 1 g) adiabatic calorimetry | 183.17 J/K/mol
226.55 K, Crystal 3, Small (less than 1 g) adiabatic calorimetry | 186.91 J/K/mol
226.72 K, Crystal 3, Small (less than 1 g) adiabatic calorimetry | 187.57 J/K/mol
227.76 K, Crystal 3, Small (less than 1 g) adiabatic calorimetry | 190.82 J/K/mol
228.63 K, Crystal 3, Small (less than 1 g) adiabatic calorimetry | 194.14 J/K/mol
228.97 K, Crystal 3, Small (less than 1 g) adiabatic calorimetry | 195.22 J/K/mol
230.16 K, Crystal 3, Small (less than 1 g) adiabatic calorimetry | 200.21 J/K/mol
230.54 K, Crystal 3, Small (less than 1 g) adiabatic calorimetry | 202.12 J/K/mol
231.34 K, Crystal 3, Small (less than 1 g) adiabatic calorimetry | 205.78 J/K/mol
232.45 K, Crystal 3, Small (less than 1 g) adiabatic calorimetry | 211.52 J/K/mol
232.51 K, Crystal 3, Small (less than 1 g) adiabatic calorimetry | 211.69 J/K/mol
233.67 K, Crystal 3, Small (less than 1 g) adiabatic calorimetry | 218.01 J/K/mol
234.36 K, Crystal 3, Small (less than 1 g) adiabatic calorimetry | 222.33 J/K/mol
234.81 K, Crystal 3, Small (less than 1 g) adiabatic calorimetry | 225.16 J/K/mol
235.93 K, Crystal 3, Small (less than 1 g) adiabatic calorimetry | 233.22 J/K/mol
236.25 K, Crystal 3, Small (less than 1 g) adiabatic calorimetry | 235.72 J/K/mol
237.04 K, Crystal 3, Small (less than 1 g) adiabatic calorimetry | 242.28 J/K/mol
238.14 K, Crystal 3, Small (less than 1 g) adiabatic calorimetry | 251.85 J/K/mol and 251.6 J/K/mol
239.22 K, Crystal 3, Small (less than 1 g) adiabatic calorimetry | 261.49 J/K/mol
240.04 K, Crystal 3, Small (less than 1 g) adiabatic calorimetry | 267.14 J/K/mol
240.28 K, Crystal 3, Small (less than 1 g) adiabatic calorimetry | 268.64 J/K/mol
241.32 K, Crystal 3, Small (less than 1 g) adiabatic calorimetry | 272.38 J/K/mol
241.94 K, Crystal 2 | 272.22 J/K/mol
242.37 K, Crystal 2 | 270.55 J/K/mol
243.42 K, Crystal 2 | 261.16 J/K/mol
243.89 K, Crystal 2 | 258.16 J/K/mol
244.49 K, Crystal 2 | 249.93 J/K/mol
245.89 K, Crystal 2 | 240.12 J/K/mol
247.88 K, Crystal 2 | 229.23 J/K/mol
249.84 K, Crystal 2 | 225.07 J/K/mol
251.78 K, Crystal 2 | 223.16 J/K/mol
253.73 K, Crystal 2 | 223.33 J/K/mol
255.66 K, Crystal 2 | 225.49 J/K/mol
257.59 K, Crystal 2 | 226.9 J/K/mol
259.52 K, Crystal 2 | 229.98 J/K/mol
261.45 K, Crystal 2 | 233.3 J/K/mol
263.38 K, Crystal 2 | 237.13 J/K/mol
265.31 K, Crystal 2 | 241.62 J/K/mol
267.23 K, Crystal 2 | 247.19 J/K/mol
269.16 K, Crystal 2 | 252.76 J/K/mol
271.09 K, Crystal 2 | 258.66 J/K/mol
273 K, Crystal 2 | 272.05 J/K/mol
274.91 K, Crystal 2 | 282.28 J/K/mol
276.81 K, Crystal 2 | 299.57 J/K/mol
278.68 K, Crystal 2 | 329.42 J/K/mol
280.53 K, Crystal 2 | 365.67 J/K/mol
282.42 K, Crystal 2 | 373.74 J/K/mol
288.85 K, Crystal 1, Small (less than 1 g) adiabatic calorimetry | 291.09 J/K/mol
293.37 K, Crystal 1, Small (less than 1 g) adiabatic calorimetry | 265.9 J/K/mol
295.36 K, Crystal 1, Small (less than 1 g) adiabatic calorimetry | 265.81 J/K/mol
297.3 K, Crystal 1, Small (less than 1 g) adiabatic calorimetry | 265.98 J/K/mol
299.23 K, Crystal 1, Small (less than 1 g) adiabatic calorimetry | 266.56 J/K/mol
301.17 K, Crystal 1, Small (less than 1 g) adiabatic calorimetry | 266.89 J/K/mol
303.1 K, Crystal 1, Small (less than 1 g) adiabatic calorimetry | 267.48 J/K/mol
305.04 K, Crystal 1, Small (less than 1 g) adiabatic calorimetry | 267.89 J/K/mol
306.98 K, Crystal 1, Small (less than 1 g) adiabatic calorimetry | 268.56 J/K/mol
308.92 K, Crystal 1, Small (less than 1 g) adiabatic calorimetry | 268.89 J/K/mol
309.23 K, Crystal 1, Small (less than 1 g) adiabatic calorimetry | 268.97 J/K/mol
310.85 K, Crystal 1, Small (less than 1 g) adiabatic calorimetry | 268.89 J/K/mol
311.41 K, Crystal 1, Small (less than 1 g) adiabatic calorimetry | 269.47 J/K/mol
312.79 K, Crystal 1, Small (less than 1 g) adiabatic calorimetry | 269.39 J/K/mol
313.59 K, Crystal 1, Small (less than 1 g) adiabatic calorimetry | 269.97 J/K/mol
314.73 K, Crystal 1, Small (less than 1 g) adiabatic calorimetry | 269.97 J/K/mol
315.77 K, Crystal 1, Small (less than 1 g) adiabatic calorimetry | 270.14 J/K/mol
316.67 K, Crystal 1, Small (less than 1 g) adiabatic calorimetry | 270.05 J/K/mol
317.96 K, Crystal 1, Small (less than 1 g) adiabatic calorimetry | 270.55 J/K/mol
318.61 K, Crystal 1, Small (less than 1 g) adiabatic calorimetry | 270.8 J/K/mol
320.14 K, Crystal 1, Small (less than 1 g) adiabatic calorimetry | 270.97 J/K/mol
320.55 K, Crystal 1, Small (less than 1 g) adiabatic calorimetry | 271.05 J/K/mol
322.32 K, Crystal 1, Small (less than 1 g) adiabatic calorimetry | 271.47 J/K/mol
324.44 K, Crystal 1, Small (less than 1 g) adiabatic calorimetry | 271.8 J/K/mol
324.5 K, Crystal 1, Small (less than 1 g) adiabatic calorimetry | 272.13 J/K/mol
326.39 K, Crystal 1, Small (less than 1 g) adiabatic calorimetry | 272.55 J/K/mol
326.7 K, Crystal 1, Small (less than 1 g) adiabatic calorimetry | 272.05 J/K/mol
328.33 K, Crystal 1, Small (less than 1 g) adiabatic calorimetry | 272.71 J/K/mol
328.88 K, Crystal 1, Small (less than 1 g) adiabatic calorimetry | 272.88 J/K/mol
330.27 K, Crystal 1, Small (less than 1 g) adiabatic calorimetry | 273.05 J/K/mol
331.06 K, Crystal 1, Small (less than 1 g) adiabatic calorimetry | 273.71 J/K/mol
332.22 K, Crystal 1, Small (less than 1 g) adiabatic calorimetry | 273.55 J/K/mol
333.25 K, Crystal 1, Small (less than 1 g) adiabatic calorimetry | 273.88 J/K/mol
334.16 K, Crystal 1, Small (less than 1 g) adiabatic calorimetry | 273.8 J/K/mol
335.43 K, Crystal 1, Small (less than 1 g) adiabatic calorimetry | 274.38 J/K/mol
336.11 K, Crystal 1, Small (less than 1 g) adiabatic calorimetry | 274.21 J/K/mol
337.62 K, Crystal 1, Small (less than 1 g) adiabatic calorimetry | 274.79 J/K/mol
338.05 K, Crystal 1, Small (less than 1 g) adiabatic calorimetry | 274.88 J/K/mol
339.81 K, Crystal 1, Small (less than 1 g) adiabatic calorimetry | 275.29 J/K/mol
340 K, Crystal 1, Small (less than 1 g) adiabatic calorimetry | 275.21 J/K/mol
341.94 K, Crystal 1, Small (less than 1 g) adiabatic calorimetry | 275.79 J/K/mol
342 K, Crystal 1, Small (less than 1 g) adiabatic calorimetry | 275.96 J/K/mol
343.89 K, Crystal 1, Small (less than 1 g) adiabatic calorimetry | 276.54 J/K/mol
344.18 K, Crystal 1, Small (less than 1 g) adiabatic calorimetry | 276.79 J/K/mol
345.84 K, Crystal 1, Small (less than 1 g) adiabatic calorimetry | 277.2 J/K/mol
346.37 K, Crystal 1, Small (less than 1 g) adiabatic calorimetry | 277.45 J/K/mol
347.78 K, Crystal 1, Small (less than 1 g) adiabatic calorimetry | 277.79 J/K/mol
348.56 K, Crystal 1, Small (less than 1 g) adiabatic calorimetry | 278.2 J/K/mol
349.73 K, Crystal 1, Small (less than 1 g) adiabatic calorimetry | 278.37 J/K/mol
350.75 K, Crystal 1, Small (less than 1 g) adiabatic calorimetry | 279.03 J/K/mol
351.68 K, Crystal 1, Small (less than 1 g) adiabatic calorimetry | 278.87 J/K/mol
352.94 K, Crystal 1, Small (less than 1 g) adiabatic calorimetry | 279.78 J/K/mol
353.63 K, Crystal 1, Small (less than 1 g) adiabatic calorimetry | 279.37 J/K/mol
355.12 K, Crystal 1, Small (less than 1 g) adiabatic calorimetry | 280.28 J/K/mol
355.58 K, Crystal 1, Small (less than 1 g) adiabatic calorimetry | 280.45 J/K/mol
357.31 K, Crystal 1, Small (less than 1 g) adiabatic calorimetry | 281.03 J/K/mol
357.53 K, Crystal 1, Small (less than 1 g) adiabatic calorimetry | 281.03 J/K/mol
359.47 K, Crystal 1, Small (less than 1 g) adiabatic calorimetry | 281.86 J/K/mol
359.5 K, Crystal 1, Small (less than 1 g) adiabatic calorimetry | 282.03 J/K/mol
361.42 K, Crystal 1, Small (less than 1 g) adiabatic calorimetry | 282.61 J/K/mol
361.71 K, Crystal 1, Small (less than 1 g) adiabatic calorimetry | 282.53 J/K/mol
363.37 K, Crystal 1, Small (less than 1 g) adiabatic calorimetry | 283.36 J/K/mol
363.9 K, Crystal 1, Small (less than 1 g) adiabatic calorimetry | 283.52 J/K/mol
365.32 K, Crystal 1, Small (less than 1 g) adiabatic calorimetry | 284.52 J/K/mol
366.08 K, Crystal 1, Small (less than 1 g) adiabatic calorimetry | 284.69 J/K/mol
367.27 K, Crystal 1, Small (less than 1 g) adiabatic calorimetry | 285.52 J/K/mol
